Measured values as given in PubChem BioAssay AID248 (DTP/NCI, 2004).
Several values for one entry are separate records, joined by “and”; a condition that tells them apart may be missing. Identical values can stand only once. Toxic doses and inconclusive results are not listed. Cut-off read from the data, not from the text of the source: active = T/C of 150% or more; inactive = T/C below 125%.

Tested on: L1210 leukemia ip in BDF1 mice, survival T/C
Assay: NCI In Vivo Anticancer Drug Screen. Data for tumor model L1210 Leukemia (intraperitoneal) in B6D2F1 (BDF1) mice
Conditions: endpoint: mean survival time, higher = longer survival
Method in brief: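 Mice bearing the transplanted tumor received compound or vehicle. Survival of the treated group was divided by that of the vehicle-treated control group to give the ratio.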

[1] = dose: 100.0 mg/kg/injection, schedule: Q01DX001 (ip), vehicle: saline
[2] = dose: 200.0 mg/kg/injection, schedule: Q01DX001 (ip), vehicle: saline
[3] = dose: 400.0 mg/kg/injection, schedule: Q01DX001 (ip), vehicle: saline
[4] = dose: 25.0 mg/kg/injection, schedule: Q04DX003 (ip), vehicle: Klucel (hydroxypropylcellulose) (HPC)
[5] = dose: 50.0 mg/kg/injection, schedule: Q04DX003 (ip), vehicle: Klucel (hydroxypropylcellulose) (HPC)
[6] = dose: 100.0 mg/kg/injection, schedule: Q04DX002 (ip), vehicle: Klucel (hydroxypropylcellulose) (HPC)
[7] = dose: 200.0 mg/kg/injection, schedule: Q04DX002 (ip), vehicle: Klucel (hydroxypropylcellulose) (HPC)
[8] = dose: 400.0 mg/kg/injection, schedule: Q04DX002 (ip), vehicle: Klucel (hydroxypropylcellulose) (HPC)
[9] = dose: 75.0 mg/kg/injection, schedule: Q01DX001 (ip), vehicle: saline
[10] = dose: 100.0 mg/kg/injection, schedule: Q04DX003 (ip), vehicle: Klucel (hydroxypropylcellulose) (HPC)
[11] = dose: 200.0 mg/kg/injection, schedule: Q04DX003 (ip), vehicle: Klucel (hydroxypropylcellulose) (HPC)
[12] = dose: 400.0 mg/kg/injection, schedule: Q04DX003 (ip), vehicle: Klucel (hydroxypropylcellulose) (HPC)
[13] = dose: 100.0 mg/kg/injection, schedule: Q01DX009 (ip), vehicle: Klucel (hydroxypropylcellulose) (HPC)
[14] = dose: 200.0 mg/kg/injection, schedule: Q01DX009 (ip), vehicle: Klucel (hydroxypropylcellulose) (HPC)
[15] = dose: 400.0 mg/kg/injection, schedule: Q01DX009 (ip), vehicle: Klucel (hydroxypropylcellulose) (HPC)

Measured: T/C

CNC(=Nc1ccccc1)c1ccc(NC(=O)c2ccc(C(=O)Nc3ccc(C(=Nc4ccccc4)NC)cc3)cc2)cc1
inactive: dose: 15.0 mg/kg/injection, schedule: Q01DX Z (ip), vehicle: saline 100 % of control | dose: 30.0 mg/kg/injection, schedule: Q01DX Z (ip), vehicle: saline 105 % of control | dose: 60.0 mg/kg/injection, schedule: Q01DX Z (ip), vehicle: saline 102 % of control

COc1ccc2c(C(=O)O)c(C(=O)c3ccccc3)ccc2c1OC
inactive: dose: 100.0 mg/kg/injection, schedule: Q01DX001 (ip), vehicle: gum acacia 98 % of control | dose: 200.0 mg/kg/injection, schedule: Q01DX001 (ip), vehicle: gum acacia 98 % of control | dose: 400.0 mg/kg/injection, schedule: Q01DX001 (ip), vehicle: gum acacia 94 % of control

CC(=O)OC1=C(C)CCC1=O
inactive: [1] 89 % of control | [2] 95 % of control | [3] 89 % of control

Clc1nc2ccccc2nc1CI
inactive: dose: 6.25 mg/kg/injection, schedule: Q01DX009 (ip), vehicle: Klucel (hydroxypropylcellulose) (HPC) 94 % of control | dose: 12.5 mg/kg/injection, schedule: Q01DX009 (ip), vehicle: Klucel (hydroxypropylcellulose) (HPC) 102 % of control | dose: 25.0 mg/kg/injection, schedule: Q01DX009 (ip), vehicle: saline with Tween-80 89 % of control | [4] 102 % of control | [5] 90 % of control

CC(C)=CCCC(C)CCO (stereo not given)
inactive: [1] 94 % of control | [2] 100 % of control

CCOC(=O)CC(COC)C(C(=O)OCC)C(=O)OCC (stereo not given)
inactive: dose: 100.0 mg/kg/injection, schedule: Q01DX009 (ip), vehicle: other 100 % of control | dose: 100.0 mg/kg/injection, schedule: Q04DX003 (ip), vehicle: other 88 % of control | dose: 200.0 mg/kg/injection, schedule: Q01DX009 (ip), vehicle: other 100 % of control | dose: 200.0 mg/kg/injection, schedule: Q04DX003 (ip), vehicle: other 94 % of control | dose: 400.0 mg/kg/injection, schedule: Q01DX009 (ip), vehicle: other 98 % of control | dose: 400.0 mg/kg/injection, schedule: Q04DX003 (ip), vehicle: other 105 % of control

CCOC(=O)c1cc([N+](=O)[O-])c([N+](=O)[O-])cc1Cl
inactive: dose: 12.5 mg/kg/injection, schedule: Q04DX003 (ip), vehicle: Klucel (hydroxypropylcellulose) (HPC) 102 % of control | [4] 103 % of control | [5] 98 % of control

CN1CN(c2ccccc2)C2(CCN(CCCC3Cc4ccccc4O3)CC2)C1=O (stereo not given)
inactive: dose: 12.0 mg/kg/injection, schedule: Q01DX001 (ip), vehicle: Klucel (hydroxypropylcellulose) (HPC) 95 % of control | dose: 25.0 mg/kg/injection, schedule: Q01DX001 (ip), vehicle: Klucel (hydroxypropylcellulose) (HPC) 98 % of control | dose: 50.0 mg/kg/injection, schedule: Q01DX001 (ip), vehicle: Klucel (hydroxypropylcellulose) (HPC) 96 % of control

O=C(O)c1ccc(NC(=S)S)cc1
inactive: [6] 103 % of control | [7] 98 % of control | [8] 98 % of control

OCC1OC(n2c(N3CCCCC3)nc3ccccc32)C(O)C1O (stereo not given)
inactive: [1] 102 % of control | [2] 105 % of control | [3] 105 % of control

CC1(C)N=C(N)N=C(N)N1c1cccc(CCCCC(=O)CCl)c1
inactive: dose: 12.5 mg/kg/injection, schedule: Q04DX003 (ip), vehicle: saline 109 % of control | dose: 25.0 mg/kg/injection, schedule: Q04DX003 (ip), vehicle: saline 102 % of control | dose: 50.0 mg/kg/injection, schedule: Q04DX003 (ip), vehicle: saline 110 % of control

Cc1cc2c(cc1C)N(C(=O)CCl)CC(=O)N2
inactive: dose: 9.37 mg/kg/injection, schedule: Q01DX009 (ip), vehicle: acetone 95 % of control | dose: 18.75 mg/kg/injection, schedule: Q01DX009 (ip), vehicle: acetone 93 % of control | dose: 18.75 mg/kg/injection, schedule: Q04DX003 (ip), vehicle: saline 96 % of control | dose: 37.5 mg/kg/injection, schedule: Q01DX009 (ip), vehicle: acetone 93 % of control | dose: 37.5 mg/kg/injection, schedule: Q04DX003 (ip), vehicle: saline 98 % of control | [9] 113 % of control | dose: 75.0 mg/kg/injection, schedule: Q04DX003 (ip), vehicle: saline 93 % of control

CCOC(=O)c1cnc(C)nc1Nc1ccccc1
inactive: [10] 97 % of control | [11] 103 % of control | [12] 108 % of control

[O-][N+](CCO)(CCO)Cc1ccccc1
inactive: dose: 50.0 mg/kg/injection, schedule: Q01DX001 (ip), vehicle: saline 103 % of control | [1] 103 % of control | [2] 103 % of control | [3] 101 % of control

O=c1[nH]cnc2ccccc12
inactive: [13] 107 % of control | [14] 93 % of control | [15] 103 % of control

Nc1nc2nc(N=Nc3ccc(C(=O)O)c(O)c3)[nH]c2c(=O)[nH]1
inactive: [10] 99 % of control | [11] 88 % of control

Nc1ccc([As](=O)(O)O)cc1
inactive: dose: 25.0 mg/kg/injection, schedule: Q01DX009 (ip), vehicle: saline 102 % of control | dose: 50.0 mg/kg/injection, schedule: Q01DX009 (ip), vehicle: saline 102 % of control | dose: 100.0 mg/kg/injection, schedule: Q01DX009 (ip), vehicle: saline 94 % of control and 104 % of control | dose: 100.0 mg/kg/injection, schedule: Q04DX002 (ip), vehicle: saline 91 % of control | dose: 200.0 mg/kg/injection, schedule: Q04DX002 (ip), vehicle: saline 102 % of control | dose: 400.0 mg/kg/injection, schedule: Q04DX002 (ip), vehicle: saline 87 % of control

O=c1[nH]cnc2c1ncn2C1CCCCC1
inactive: dose: 23.12 mg/kg/injection, schedule: Q01DX Z (ip), vehicle: carboxymethylcellulose (CMC) 100 % of control | dose: 46.25 mg/kg/injection, schedule: Q01DX Z (ip), vehicle: carboxymethylcellulose (CMC) 105 % of control | dose: 46.25 mg/kg/injection, schedule: Q01DX Z (oral), vehicle: carboxymethylcellulose (CMC) 94 % of control | dose: 92.5 mg/kg/injection, schedule: Q01DX Z (ip), vehicle: carboxymethylcellulose (CMC) 96 % of control | dose: 92.5 mg/kg/injection, schedule: Q01DX Z (oral), vehicle: carboxymethylcellulose (CMC) 97 % of control | dose: 185.0 mg/kg/injection, schedule: Q01DX Z (ip), vehicle: carboxymethylcellulose (CMC) 100 % of control | dose: 185.0 mg/kg/injection, schedule: Q01DX Z (oral), vehicle: carboxymethylcellulose (CMC) 100 % of control | dose: 370.0 mg/kg/injection, schedule: Q01DX Z (oral), vehicle: carboxymethylcellulose (CMC) 97 % of control

OC(CC(O)(c1ccccc1)c1ccccc1)(c1ccccc1)c1ccccc1
inactive: dose: 9.5 mg/kg/injection, schedule: Q01DX001 (ip), vehicle: other 93 % of control | dose: 19.0 mg/kg/injection, schedule: Q01DX001 (ip), vehicle: other 96 % of control | dose: 38.0 mg/kg/injection, schedule: Q01DX001 (ip), vehicle: other 93 % of control

O=C(O)c1c(Br)c(Br)c(Br)c(Br)c1C(=O)Nc1ccc([N+](=O)[O-])cc1
inactive: [13] 104 % of control | [6] 96 % of control | [14] 109 % of control | [7] 96 % of control | [8] 107 % of control

O=C(O)CCCCCCCCCCN1C(=O)CCC1=O
inactive: dose: 100.0 mg/kg/injection, schedule: Q04DX003 (ip), vehicle: carboxymethylcellulose (CMC) 98 % of control | dose: 200.0 mg/kg/injection, schedule: Q04DX003 (ip), vehicle: carboxymethylcellulose (CMC) 92 % of control | dose: 400.0 mg/kg/injection, schedule: Q04DX003 (ip), vehicle: carboxymethylcellulose (CMC) 104 % of control

CCCCSc1n[nH]c(=O)[nH]c1=O
inactive: [1] 113 % of control | [2] 92 % of control | [3] 95 % of control

Cc1ccc(CNc2ccc(Br)cc2)cc1
inactive: [13] 96 % of control | [10] 101 % of control | [14] 99 % of control | [11] 102 % of control | [15] 94 % of control | [12] 101 % of control

O=C1CCC[C@@H]2[C@H]3CCCN4CCC[C@@H](CN12)[C@@H]34
inactive: [9] 105 % of control | dose: 150.0 mg/kg/injection, schedule: Q01DX001 (ip), vehicle: saline 96 % of control

CO/N=C(/CSS(=O)(=O)O)c1ccccc1
inactive: [6] 96 % of control | [7] 96 % of control | [8] 96 % of control
